# Test results taken from patent US9883691B2, “Food and beverage products containing 1,3-propanediol and methods of modifying flavor release using 1,3-propanediol” (Kraft Foods Group Brands LLC, priority 2012, dated 2018).
# Entries after “also recorded” stand apart in the source; their conditions may differ.
# Experiments:
# Assay type in all cases: physicochemical
# [1] = PTR-MS headspace release with various non-aqueous liquids (diols) at 0.05:100 (Example 3); conditions: ratio 0.05:100; for PTR-MS headspace release in 1,3-butanediol: non-aqueous liquid 1,3-butanediol; for PTR-MS headspace release in 1,3-butanediol / PTR-MS headspace release in 1,3-propanediol / PTR-MS headspace release in 1,4-butanediol / PTR-MS headspace release in 1,7-heptanediol / PTR-MS headspace release in Propylene glycol: diluted in water; for PTR-MS headspace release in 1,3-propanediol: non-aqueous liquid 1,3-propanediol; for PTR-MS headspace release in 1,4-butanediol: non-aqueous liquid 1,4-butanediol; for PTR-MS headspace release in 1,7-heptanediol: non-aqueous liquid 1,7-heptanediol; for PTR-MS headspace release in Propylene glycol: non-aqueous liquid propylene glycol
# Experimental: […]. The flavoring was then diluted in water for analysis. The final concentration of each compound was held constant at 8 ppm except furfuryl mercaptan was included at 1.6 ppm to maintain a constant flavor level in the resulting beverage while the non-aqueous liquid varied but the ratio of each compound to non-aqueous liquid was held constant at 0.05:100. A variety of non-aqueous liquids were evaluated, including 1,4-butandiol; 1,7-heptandiol; 1,3-butandiol, propylene glycol, and 1,3-propanediol.
# Samples were analyzed by PTR-MS as described in Example 1.
# Percent suppression was calculated by the following formula: (I1-3-diol−Ialternate diol)/Ialternate diol×100.
# [2] = PTR-MS headspace release at various flavor compound to 1,3-propanediol or PG ratios (Example 2); conditions: for release suppressed in the presence of 1,3-propanediol: 10% cut-off for significant difference, relative to PG; for Percent Suppression by 1,3-propanediol: (IZ−IPG)/IPG×100
# Experimental: The compounds listed below in Table 3 were added together to provide a liquid flavoring to analyze the role, if any, of the amount of 1,3-propanediol on flavor release. […] The amount of each flavor compound in the beverage was held constant at 8 ppm except furfuryl mercaptan was included at 1.6 ppm while the amount of propylene glycol or 1,3-propanediol varied.
# The percent suppression was calculated using the following formula: (IZ−IPG)/IPG×100, where I is peak height, “Z” is 1,3-propanediol and “PG” is propylene glycol.
# [3] = PTR-MS headspace release from stored beverages, water/solvent experiment (Example 4); conditions: beverage stored refrigerated; 1.5, 24, 48 and 72 hours; Tukey-Kramer
# Experimental: 0.86 grams of the flavor concentrate was then added to 100 grams of either propylene glycol or 1,3-propanediol to provide diluted concentrates. […].
# The beverages were then stored in sealed containers in a refrigerator. The container was opened five times over the course of the experiment and therefore represented a beverage in a sealed container being opened for multiple uses. 15 gram samples were weighed into a 4 ounce cup and analyzed at 1.5 hours, 24 hours, 48 hours, and 72 hours after storage.
# The samples were analyzed in triplicate by PTR-MS as described below to determine impact of 1,3-propanediol or propylene glycol on release of the flavors from the beverage. The PTR-MS was performed as follows. A sampling apparatus was needed in conjunction with the PTR-MS inlet to prevent variations caused by headspace kinetics. The sampling apparatus used includes a 4 ounce sample vessel equipped with a 2-hole lid which may be sealed by an adhesive film to allow equilibration. […]. The holes were equal sized (˜2 mm diameter) and match the outer diameter of the PTR-MS inlet line. The flow of the dilution gas into the vessel was regulated by the vacuum and proportional valve of the PTR-MS inlet system. […] The 2 holes in the lid were equidistant from the edge of the vessel (˜20 mm) and ˜30 mm from each other. The PTR-MS inlet was braced by clamps in a fixed position vertically above the laboratory bench (˜55 mm) and a silicone rubber depth gauge was affixed to the PTR-MS inlet tubing and set at 18 mm. The PTR-MS inlet was consistently oriented in a vertical position […] below the inside lid of the vessel and 19 mm above the sample in the vessel. The sample vessel was then held in place during sampling according to the depth gauge on the inlet line and the vessel was subsequently supported on the bench by a 10 mm plastic spacer.
# 15 grams of the sample to be tested (e.g., food or beverage product containing 1,3-propanediol) are added to the vessel and the vessel is sealed and allowed to equilibrate at room temperature (˜22° C.) for 90 minutes. At the time of sampling, the seal was removed from both the sampling hole and the dilution gas hole in the lid and the vessel was immediately affixed to the PTR-MS inlet via the sampling hole. The real-time released flavor was measured from the headspace of the sample vessel for two minutes (according to the conditions listed in Table 1 above).
# The data was analyzed using PTR-MS Viewer, Version 3.0.0.101 (Ionicon Analytik G.m.b.H). The point of maximum intensity for each compound of interest was determined and recorded according to the PTR-MS Viewer software. The maximum intensity in counts over the timescale for each compound of interest was used for data analysis as it reflected the static equilibrium headspace concentration in the system at the moment of seal removal. Due to the necessity of a dilution gas, the volatile concentration decreased over time as the compounds of interest re-equilibrated to a state of dynamic equilibrium in the headspace.
# The statistical differences were determined by Tukey-Kramer Honest […]. […].
# [4] = PTR-MS headspace release in neat solvent, solvent/solvent experiment (Example 5); parameters: key to Release Differences: “Z” indicates that 1,3-propanediol had higher equilibrium maximum (meaning more of the flavor was released in 1,3-propanediol); “P” indicates that propylene glycol had higher equilibrium maximum; “-” indicates no statistical difference (95% significance) between the two samples; conditions: 1.5 hrs equilibration; for Release Differences: 1,3-propanediol versus propylene glycol as sole solvent, 95% significance
# Experimental: […]. Then the head space was analyzed as described above.
# 0.86 grams of the concentrate was added to 100 grams of either propylene glycol or 1,3-propanediol to provide a 1,3-propanediol diluted concentrate or propylene glycol diluted concentrate. The diluted concentrates were then further diluted as outlined in Table 10 below.
# A 15 gram sample was weighed into a 4 oz vessel and analyzed at 1.5 hrs. of equilibration time as described in the method of Example 4.
# [5] = flavor/1,3-propanediol ratio of 0.05:100
# [6] = ratio 0.005:100, negative = suppressed vs PG
SMILES,"PTR-MS headspace release in 1,3-butanediol [1]","PTR-MS headspace release in 1,3-propanediol [1]","PTR-MS headspace release in 1,4-butanediol [1]","PTR-MS headspace release in 1,7-heptanediol [1]",PTR-MS headspace release in Propylene glycol [1],"Percent suppression by 1,3-butanediol relative to 1,4-butanediol [1]","release suppressed in the presence of 1,3-propanediol [2]","effect of 1,3-propanediol on release [2, 5]","Percent Suppression by 1,3-propanediol [2, 6]","Percent Suppression by 1,3-propanediol ([2]; ratio 0.05:100)","Percent Suppression by 1,3-propanediol ([2]; ratio 5:100)","Percent Suppression by 1,3-propanediol ([2]; ratio 15:100)","effect of 1,3-propanediol on flavor release relative to propylene glycol, water/solvent [3]",Release Differences [4],"effect of 1,3-propanediol on release ([2]; flavor to 1,3-propanediol ratio of about 0.005:100 to 15:100)","effect of 1,3-propanediol on release ([2]; ratio 0.005:100)","release in 1,3-propanediol versus propylene glycol, solvent/solvent [4]"
CC(=O)O [Acetic acid],16.9,9.90,15.6,13.4,13.70,8.0%,suppressed,significant suppression effect,−0.5%,−27.7%,−1.7%,−9.0%,little effect,P,–,–,–
"CC(C)=CCCC(C)=CC=O [Citral, 3,7-dimethyl-2,6-octadienal]",6.0,5.83,13.5,24.3,18.80,−124.2%,suppressed,–,−70.0%,−69.0%,−45.4%,−58.2%,significantly suppressed release,–,significant suppression effect,still suppressed,–
CCCCCCCCCC(=O)OCC [Ethyl decanoate],117.0,23.9,258.0,131.3,16.84,−120.5%,–,–,−2.0%,41.9%,17.8%,−12.4%,little effect,–,–,–,–
SCc1ccco1 [Furfuryl mercaptan],1.3,0.55,0.3,2.1,0.51,73.9%,–,–,31.8%,7.8%,15.9%,−13.1%,significantly increase the rate of release,–,–,–,–
COc1ccccc1O [Guaiacol],28.4,18.95,39.9,36.2,36.50,−40.3%,suppressed,significant suppression effect,−3.4%,−48.1%,−19.9%,0.2%,significantly suppressed release,–,–,–,–
C=C(C)[C@H]1CC=C(C)CC1 [Limonene],13.5,4.9,59.7,59.5,6.55,−343.5%,suppressed,–,−0.1%,−25.2%,−34.8%,23.5%,little effect; also recorded: no significant difference,Z,–,–,"released faster in 1,3-propanediol"
CCCCCCCC=O [Octanal],42.9,10.70,56.0,67.0,11.95,−30.5%,–,–,2.6%,−10.5%,−21.1%,−2.5%,significantly suppressed release,–,–,–,–
CCCCCCCCO [Octanol],4.0,1.05,5.1,6.2,1.19,−27.5%,–,–,8.5%,−11.4%,−19.1%,−0.6%,significantly suppressed release; also recorded: released faster in propylene glycol,P,–,–,no significant difference
Cc1nc(C)c(C)nc1C [Tetramethyl pyrazine],12.3,9.89,20.5,22.0,17.85,−67.3%,suppressed,significant suppression effect,10.2%,−44.6%,−17.8%,−5.6%,little effect,Z,–,–,–
